Experimental data: patent US20040005537A1, “Method of identifying toxic agents using differential gene expression” (priority 2000, published 2004)

How the values were obtained:
rat heart tissue = assay: GENECALLING differential gene expression analysis after dosing of serotonin modulating agents; assay type: in vivo, Sprague Dawley rats
Procedure, shortened: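 Rats dosed with serotonin modulating agents, controls given sterile water or canola oil; tissue taken 24 h after the last dose. Total RNA converted to cDNA and profiled by GENECALLING differential expression analysis; fragments changed more than ±1.5-fold were selected.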

[1] = cited from earlier work

## CCNC(C)Cc1cccc(C(F)(F)F)c1 (centres unmarked) [fenfluramine]
Rat heart tissue; CARDIOTOX 72
  Effects on Transcription Level: Novel gene fragment, 445 bp, 85% SI to human skeletal muscle alpha 2 actinin [M86406]: −2.0 fold
Rat heart tissue; CARDIOTOX 73
  Effects on Transcription Level: Novel gene fragment, 246 bp, 89% SI to mouse ponsin-1 [AF078667]: −2.8 fold
Rat heart tissue; CARDIOTOX 74
  Effects on Transcription Level: Novel gene fragment, 126 bp, 77% SI to human DNA sequence from cosmid V311G7, between markers DXS366 and DXS87 on chromosome X [Z69304]: +1.9 fold
Rat heart tissue; CARDIOTOX 75
  Effects on Transcription Level: Novel gene fragment, 370 bp: −3.0 fold
Rat heart tissue; CARDIOTOX 76
  Effects on Transcription Level: Novel gene fragment, 337 bp, 78% SI to novel human protein AHNAK [M80899]: −3.6 fold
Rat heart tissue; CARDIOTOX 77
  Effects on Transcription Level: Novel gene fragment, 100 bp, 93% SI to human KIAA0750 protein [ABO18293]: −9.0 fold
Rat heart tissue; CARDIOTOX 78
  Effects on Transcription Level: Novel gene fragment, 44 bp: −6.7 fold
Rat heart tissue; CARDIOTOX 79
  Effects on Transcription Level: Novel gene fragment, 698 bp, 93% SI to mouse plenty-of-prolines-101 [AF062655]: −2.5 fold
Rat heart tissue; CARDIOTOX 80
  Effects on Transcription Level: Novel gene fragment, 660 bp, 84% SI to mouse membrane protein TMS-2 [AF181685]: −3.7 fold
Rat heart tissue; CARDIOTOX 81
  Effects on Transcription Level: Novel gene fragment, 115 bp: −6.3 fold
Rat heart tissue; CARDIOTOX 82
  Effects on Transcription Level: Novel gene fragment, 294 bp, 95% SI to mouse Ndr1 related protein Ndr2 [AB033921]: −2.0 fold
Rat heart tissue; CARDIOTOX 83
  Effects on Transcription Level: Novel gene fragment, 198 bp: +2.7 fold
Rat heart tissue; CARDIOTOX 84
  Effects on Transcription Level: Novel gene fragment, 730 bp, 86% SI to mouse E800 [Y10968]: −2.4 fold
Rat heart tissue; CARDIOTOX 85
  Effects on Transcription Level: Novel gene fragment, 294 bp, 98% SI to cysteine conjugate beta-lyase [S61960]: −2.4 fold
Rat heart tissue; CARDIOTOX 86, GenBank A1243266
  Effects on Transcription Level: Aconitase: −3.4 fold
Rat heart tissue; CARDIOTOX 87, GenBank M17422
  Effects on Transcription Level: Ribosomal protein L7: +2.5 fold
Rat heart tissue; CARDIOTOX 88, GenBank X51706
  Effects on Transcription Level: Ribosomal protein L9: +11.0 fold
Rat heart tissue; CARDIOTOX 89, GenBank X53504
  Effects on Transcription Level: Ribosomal protein L12: −1.5 fold
Rat heart tissue; CARDIOTOX 90, GenBank V01270
  Effects on Transcription Level: 18S, 5.8S, and 28S ribosomal RNA's: +6 fold
Rat heart tissue; CARDIOTOX 91, GenBank U10357
  Effects on Transcription Level: Pyruvate dehydrogenase kinase 2 (PDK2): −7.7 fold
Rat heart tissue; CARDIOTOX 92, GenBank J03179
  Effects on Transcription Level: D-Binding Protein (DBP): −1.9 fold
Rat heart tissue; CARDIOTOX 93, GenBank L03294
  Effects on Transcription Level: Lipoprotein lipase: −2.3 fold
Rat heart tissue; CARDIOTOX 94, GenBank X02610
  Effects on Transcription Level: Non-neuronal enolase: +3.5 fold
Rat heart tissue; CARDIOTOX 95, GenBank L10669
  Effects on Transcription Level: Glycogen phosphorylase (muscle isozyme): −2.3 fold
Rat heart tissue; CARDIOTOX 96, GenBank X14209
  Effects on Transcription Level: Cytochrome c oxidase subunit IV: +10.0 fold
Rat heart tissue; CARDIOTOX 97, GenBank M17083
  Effects on Transcription Level: Alpha-globin: +3.4 fold
Rat heart tissue; CARDIOTOX 98, GenBank X06701
  Effects on Transcription Level: Beta-globin: +3.6 fold
Rat heart tissue; CARDIOTOX 99, GenBank AF197916
  Effects on Transcription Level: Myoglobin: +4.0 fold
Rat heart tissue; CARDIOTOX 100, GenBank L38717
  Effects on Transcription Level: Titin: −1.6 fold
Rat heart tissue; CARDIOTOX 101, GenBank V01218
  Effects on Transcription Level: Skeletal muscle actin: −14.9 fold
Rat heart tissue; CARDIOTOX 102, GenBank M11851
  Effects on Transcription Level: Myosin light chain 2 (MLC2): +2.4 fold
Rat heart tissue; CARDIOTOX 103, GenBank X15938
  Effects on Transcription Level: Alpha cardiac myosin heavy chain: −7.5 fold
Rat heart tissue; CARDIOTOX 104, GenBank U77354
  Effects on Transcription Level: Troponin I: +1.8 fold
Rat heart tissue; CARDIOTOX 105, GenBank AF001334
  Effects on Transcription Level: Cardiac calsequestrin: −2.4 fold
Rat heart tissue; CARDIOTOX 106, GenBank M16975
  Effects on Transcription Level: Sulfated glycoprotein 2: −1.8 fold
Rat heart tissue; CARDIOTOX 107, GenBank AB000507
  Effects on Transcription Level: Aquaporin 7: +1.5 fold
Rat heart tissue; CARDIOTOX 108, GenBank X97831
  Effects on Transcription Level: Carnitine/acylcarnitine carrier protein: −2.6 fold
Rat heart tissue; CARDIOTOX 109, GenBank U40628
  Effects on Transcription Level: Glu-Pro Dipeptide Repeat: −5.6 fold
Rat heart tissue; CARDIOTOX 110, GenBank X54737
  Effects on Transcription Level: Cystatin beta: +2.7 fold
Rat heart tissue; CARDIOTOX 111
  Effects on Transcription Level: Novel gene fragment, 593 bp, 90% SI to human calcineurin B-like protein [Z08983]: +2.1 fold
Rat heart tissue; CARDIOTOX 112
  Effects on Transcription Level: Novel gene fragment, 179 bp, 88% SI to human titin [X90568]: −3.0 fold
Rat heart tissue; CARDIOTOX 113
  Effects on Transcription Level: Novel gene fragment, 700 bp, 91% SI to mouse periplakin (PPL) [AF116523]: +2.0 fold
Rat heart tissue; CARDIOTOX 114, GenBank J05029
  Effects on Transcription Level: Long chain acyl-CoA dehydrogenase (LCAD): +1.8 fold
Rat heart tissue; CARDIOTOX 115, GenBank M19936
  Effects on Transcription Level: Sulfated glycoprotein 1 (SGP-1): −2.0 fold
Rat heart tissue; CARDIOTOX 116, GenBank M11670
  Effects on Transcription Level: Catalase: +2.1 fold
Rat heart tissue; CARDIOTOX 117, GenBank AF084186
  Effects on Transcription Level: Alpha-fodrin (A2A) (Nonerythroid spectrin alpha subunit): −1.8 fold
Rat heart tissue; CARDIOTOX 118, GenBank M27902
  Effects on Transcription Level: Cardiac specific sodium channel alpha-subunit: −2.1 fold
Rat heart tissue; CARDIOTOX 119, GenBank U40628
  Effects on Transcription Level: Glu-Pro Dipeptide Repeat: +4.2 fold
Rat heart tissue; CARDIOTOX 120
  Effects on Transcription Level: Novel gene fragment, 200 bp, 64% SI to human KIAA0733 protein [AB018316]: −1.7 fold
Rat heart tissue; CARDIOTOX 121, GenBank L42855
  Effects on Transcription Level: RNA polymerase II transcription factor SIII (p18 subunit): +1.7 fold
Rat heart tissue; CARDIOTOX 122, GenBank L01702
  Effects on Transcription Level: Protein-tyrosine phosphalase (LRP): +2.0 fold
Rat heart tissue; CARDIOTOX 123, GenBank U25264
  Effects on Transcription Level: Skeletal muscle selenoprotein W (SelW): −1.8 fold
Rat heart tissue; CARDIOTOX 124, GenBank X15635
  Effects on Transcription Level: Sarcoplasmic reticulum 2+-Ca-ATPase: −1.6 fold
Rat heart tissue; CARDIOTOX 125, GenBank X53377
  Effects on Transcription Level: Ribosomal protein S7: +1.0 fold
Rat heart tissue; CARDIOTOX 126, GenBank X05300
  Effects on Transcription Level: Ribophorin I: +1.6 fold
Rat heart tissue; CARDIOTOX 127, GenBank X15939
  Effects on Transcription Level: Beta cardiac myosin heavy chain: +2.3 fold
Rat heart tissue; CARDIOTOX 128, GenBank L12380
  Effects on Transcription Level: ADP-ribosylation factor 1: +1.2 fold
Rat heart tissue; CARDIOTOX 129, GenBank U04942
  Effects on Transcription Level: Laminin receptor: +2.6 fold
Rat heart tissue; CARDIOTOX 130
  Effects on Transcription Level: Novel gene fragment, 206 bp, 89% SI to human seryl-tRNA synthetase [X91257]: +1.8 fold
Rat heart tissue; CARDIOTOX 131, GenBank X86086
  Effects on Transcription Level: Annexin VI: −1.8 fold
Rat heart tissue; CARDIOTOX 132
  Effects on Transcription Level: Novel gene fragment, 325 bp, 90% SI to mouse N-RAP [U76618]: +1.7 fold
Rat heart tissue; LD10 dose for three days
  Effects on Transcription Level: Novel gene fragment, 61 bp (CARDIOTOX 134): −2.4 fold
  Effects on Transcription Level: Novel gene fragment, 337 bp (CARDIOTOX 133): −2.4 fold
  Effects on Transcription Level: Novel gene fragment, 378 bp, 88% SI to human coatomer protein (COPA) [U24105] (CARDIOTOX 138): −1.6 fold
Rat heart tissue; LD10 dose for three days, GenBank D16479
  Effects on Transcription Level: Long chain 3-ketoacyl-CoA thiolase (CARDIOTOX 136): −1.1 fold
Rat heart tissue; LD10 dose for three days, GenBank D87671
  Effects on Transcription Level: TATA-binding protein interacting protein 120 (TIP120) (CARDIOTOX 135): +1.9 fold
Rat heart tissue; LD10 dose for three days, GenBank D88250
  Effects on Transcription Level: Serine protease (CARDIOTOX 139): +4.0 fold
Rat heart tissue; LD10 dose for three days, GenBank M34043
  Effects on Transcription Level: Thymosin beta-4 (CARDIOTOX 137): +1.6 fold
Rat heart tissue; LD10 dose for three days, GenBank X86086
  Effects on Transcription Level: Annexin VI (no CARDIOTOX assignment given): −1.7 fold
[1]; grouping used to generate the distinguishing gene profiles
  classification as cardiotoxic or noncardiotoxic serotonin modulating agent: cardiotoxic
[1]; patients to which they are administered
  side effect reported in a subset of patients: valvular heart disease
